Experimental data from patent US20240148749A1 (priority 2021, published 2024).

Tested on: CLP mice
Test: Survival after cecal ligation and puncture (CLP) model of sepsis
Format: in vivo, mouse
Description: A log-rank (Mantel-Cox) p value for trend was calculated.
We used peritonitis induced by CLP as a model of sepsis (Rittirsch et al., 2009). Briefly, animals were anesthetized with ketamine (Imalgene® 1000 100 mg/kg, Merial, France) and Xylazine (Rompun® 2% 20 mg/kg, Bayer, Germany) prior to surgery. After laparotomy, caecum was ligatured at the distal third with a 4.0 suture and the distal part was perforated twice with a 21 Gauge needle.
For use it is dissolved following the guidance provided by the manufacturer.
Clinical score was assessed 6, 12 and 24 hours and 21 days after CLP using a modified SmithKline Beecham, Harwell, Imperial College and Royal London Hospital phenotype assessment (SHIRPA) (Rogers et al., 1997) of the maximum score of fourteen. Weight, temperature and locomotor activity using an open field box were measured at the same time points. We determined survival rate twice a day for 21 days after CLP. The symptoms included in the a modified SmithKline Beecham, Harwell, Imperial College and Royal London Hospital phenotype assessment (SHIRPA) are tremors, periorbital exudates, piloerection, lethargy, vocalisation, positional passivity, no escapement to threat, long transfer arousal and diarrhoea. Each condition was scored from 0 to 2.
Experimental protocols were conducted in accordance with the French and European regulations on Animal Welfare and with Public Health Service recommendations. The experiments were performed on C57BL/6JRj mice (male and female) purchased from Janvier Laboratory. Mice were housed in cages in groups of 7, in a temperature (22±1.5° C.) and humidity-controlled environment, with a 12 h light/dark cycle. All animals used in the study were between 10 and 12 weeks old. Sample-size estimates for animal experiments were based on prior animal-modelling studies used in the Unit for the investigation of caecal ligation and puncture (CLP).
At the end, two groups were compared: CLP-Placebo, CLP-BMX-010. We determined survival rate twice a day for 4 days after CLP.”

## CC[n+]1ccccc1-c1c2nc(c(-c3cccc[n+]3CC)c3ccc([nH]3)c(-c3cccc[n+]3CC)c3nc(c(-c4cccc[n+]4CC)c4ccc1[nH]4)C=C3)C=C2.[Mn+3] [BMX-010, manganese(III) 5,10,15,20-tetrakis(N-ethylpyridinium-2-yl) porphyrin]
CLP experiment, FIG. 10
  survival of mice hours post-CLP (probability of survival over time) versus placebo: outperforms the placebo
CLP mice, 2 mg/kg intra peritoneal every 12 hours during 48 hours (4 injections), N=12 mice C57BL6/group
  survival at 4 days post-CLP versus placebo: more that doubles survival
